Source: patent US9382197B2, “Substituted hydroxamic acids and uses thereof” (Millennium Pharmaceuticals, Inc., priority 2010, dated 2016)

Molecular target: T1, purified human HDAC6 (Homo sapiens, UniProt Q9UBN7)
T1 construct: purchased BPS Bioscience 5006
T1 sequence (Q9UBN7 1-1215): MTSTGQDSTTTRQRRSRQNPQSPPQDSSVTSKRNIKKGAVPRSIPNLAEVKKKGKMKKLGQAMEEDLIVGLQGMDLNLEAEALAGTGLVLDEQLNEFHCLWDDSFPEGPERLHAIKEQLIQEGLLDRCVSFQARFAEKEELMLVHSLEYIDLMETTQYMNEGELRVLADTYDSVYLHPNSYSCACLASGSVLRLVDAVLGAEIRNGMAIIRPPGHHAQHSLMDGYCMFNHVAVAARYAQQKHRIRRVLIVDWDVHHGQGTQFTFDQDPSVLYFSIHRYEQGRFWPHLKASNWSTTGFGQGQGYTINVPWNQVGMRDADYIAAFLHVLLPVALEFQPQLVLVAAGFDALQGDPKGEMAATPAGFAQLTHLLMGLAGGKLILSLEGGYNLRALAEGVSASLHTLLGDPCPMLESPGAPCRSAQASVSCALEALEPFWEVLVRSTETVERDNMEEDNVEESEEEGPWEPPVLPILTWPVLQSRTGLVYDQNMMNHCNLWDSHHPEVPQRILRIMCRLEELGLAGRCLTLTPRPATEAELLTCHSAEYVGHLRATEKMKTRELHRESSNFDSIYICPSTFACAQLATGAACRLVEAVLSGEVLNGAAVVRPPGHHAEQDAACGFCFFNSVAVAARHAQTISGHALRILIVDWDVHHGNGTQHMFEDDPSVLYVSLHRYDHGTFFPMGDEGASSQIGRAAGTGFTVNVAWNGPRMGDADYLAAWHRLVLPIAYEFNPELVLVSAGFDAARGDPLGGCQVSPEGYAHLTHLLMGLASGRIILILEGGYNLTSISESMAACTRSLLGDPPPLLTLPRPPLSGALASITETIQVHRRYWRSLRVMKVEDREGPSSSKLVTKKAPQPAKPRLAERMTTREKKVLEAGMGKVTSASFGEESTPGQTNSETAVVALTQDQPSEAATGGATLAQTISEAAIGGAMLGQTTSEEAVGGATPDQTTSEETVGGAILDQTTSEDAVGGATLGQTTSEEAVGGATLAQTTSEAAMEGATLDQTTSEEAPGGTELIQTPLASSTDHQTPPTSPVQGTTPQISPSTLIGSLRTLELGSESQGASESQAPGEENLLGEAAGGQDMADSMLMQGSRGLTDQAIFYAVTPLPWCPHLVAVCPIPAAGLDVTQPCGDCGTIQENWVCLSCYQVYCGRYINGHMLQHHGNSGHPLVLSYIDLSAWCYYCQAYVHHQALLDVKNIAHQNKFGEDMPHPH
Assay: HDAC6 Enzyme Assay
Assay type: biochemical
Outline: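 Deacetylated product quantified after trypsin digestion as released AMC (340/460 nm), following a 1 h, 30 °C reaction of human HDAC6 with Ac-RGK(Ac)-AMC peptide, quenched by trichostatin A. IC50 derived from DMSO-normalized curves.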

[1] = purified human HDAC6, substrate Ac-Arg-Gly-Lys(Ac)-AMC, 1 hour at 30° C., reported as bins
[2] = bin: greater than 500 nM and less than 1 μM (lower bound in nM, upper bound in μM)

COc1ccc(CCCC(=O)NC(C)c2ccc(C(=O)NO)cc2)cc1 (stereo not drawn) [Compound I-70, N-hydroxy-4-(1-{[4-(4-methoxyphenyl)butanoyl]amino}ethyl)benzamide]
IC50 (bin: greater than 1 μM): > 1000 nM

COc1cc(C(=O)NO)ccc1C(C)NC(=O)C12CC3CC(CC(C3)C1)C2 (stereo not drawn) [Compound I-483, N-(1-{4-[(hydroxyamino)carbonyl]-2-methoxyphenyl}ethyl)adamantane-1-carboxamide]
IC50 (bin: greater than 1 μM): > 1000 nM

CCCC(=O)NC(C)c1ccc(C(=O)NO)cc1 (stereo not drawn) [Compound I-243, 4-[1-(butyrylamino)ethyl]-N-hydroxybenzamide]
IC50 [1]: < 100 nM

CC(C)C(NC(=O)c1cc2ccccc2s1)c1cccc(C(=O)NO)c1 (stereo not drawn) [Compound I-390, N-(1-{3-[(hydroxyamino)carbonyl]phenyl}-2-methylpropyl)-1-benzothiophene-2-carboxamide]
IC50 (bin: greater than 1 μM): > 1000 nM

Cc1cccc(NC(=O)NC(C)c2ccc(C(=O)NO)cc2)c1C (stereo not drawn) [Compound I-175, 4-[1-({[(2,3-dimethylphenyl)amino]carbonyl}amino)ethyl]-N-hydroxybenzamide]
IC50 [1]: < 100 nM

CCC[C@@H](NC(=O)c1cc(Cl)c(Cl)n1C)c1ccc(C(=O)NO)cc1 [Compound I-245, 4,5-dichloro-N-((1R)-1-{4-[(hydroxyamino)carbonyl]phenyl}butyl)-1-methyl-1H-pyrrole-2-carboxamide]
IC50 [1]: < 100 nM

Cn1c(C(=O)NC(c2ccc(C(=O)NO)cc2)C(C)(C)C)cc2oc(-c3ccc(C(C)(C)C)cc3)cc21 (stereo not drawn) [Compound I-337, 2-(4-tert-butylphenyl)-N-(1-{4-[(hydroxyamino)carbonyl]phenyl}-2,2-dimethylpropyl)-4-methyl-4H-furo[3,2-b]pyrrole-5-carboxamide]
IC50 (bin: greater than 1 μM): > 1000 nM

CC(C)[C@H](NC(=O)c1cc2ccccc2[nH]1)c1ccc(C(=O)NO)cc1 [Compound I-279, N-((1S)-1-{4-[(hydroxyamino)carbonyl]phenyl}-2-methylpropyl)-1H-indole-2-carboxamide]
IC50 [1]: 100 to 500 nM

CC(C)[C@@H](NC(=O)N[C@@H](C)c1ccccc1)c1ccc(C(=O)NO)cc1 [Compound I-516, N-hydroxy-4-{(1R)-2-methyl-1-[({[(1S)-1-phenylethyl]amino}carbonyl)amino]propyl}benzamide]
IC50 [1]: < 100 nM

Cc1cc(C(=O)NO)ccc1C(C)NC(=O)C12CC3CC(CC(C3)C1)C2 (stereo not drawn) [Compound I-491, N-(1-{4-[(hydroxyamino)carbonyl]-2-methylphenyl}ethyl)adamantane-1-carboxamide]
IC50 (bin: greater than 1 μM): > 1000 nM

CC(NC(=O)c1cc(F)cc(F)c1)c1cccc(C(=O)NO)c1 (stereo not drawn) [Compound I-137, 3,5-difluoro-N-(1-{3-[(hydroxyamino)carbonyl]phenyl}ethyl)benzamide]
IC50 [2]: 500 to 1000 nM

CC(C)c1cc(C(=O)NC(C)c2ccc(C(=O)NO)cc2)n(C)n1 (stereo not drawn) [Compound I-186, N-(1-{4-[(hydroxyamino)carbonyl]phenyl}ethyl)-3-isopropyl-1-methyl-1H-pyrazole-5-carboxamide]
IC50 [1]: < 100 nM

CC(NC(=O)Nc1ccc(C(C)(C)C)cc1)c1ccc(C(=O)NO)cc1 (stereo not drawn) [Compound I-140, 4-[1-({[(4-tert-butylphenyl)amino]carbonyl}amino)ethyl]-N-hydroxybenzamide]
IC50 [1]: < 100 nM

CC(NC(=O)c1cnnc2ccccc12)c1ccc(C(=O)NO)cc1 (stereo not drawn) [Compound I-56, N-(1-{4-[(hydroxyamino)carbonyl]phenyl}ethyl)cinnoline-4-carboxamide]
IC50 (bin: greater than 1 μM): > 1000 nM

O=C(NO)c1ccc([C@H](NC(=O)C23CC4CC(CC(C4)C2)C3)c2ccccc2)cc1 [Compound I-336, N-[(R)-{4-[(hydroxyamino)carbonyl]phenyl}(phenyl)methyl]adamantane-1-carboxamide]
IC50 [1]: 100 to 500 nM

C[C@@H](NC(=O)NC(C)(C)C)c1cccc(C(=O)NO)c1 [Compound I-320, 3-((1R)-1-{[(tert-butylamino)carbonyl]amino}ethyl)-N-hydroxybenzamide]
IC50 (bin: greater than 1 μM): > 1000 nM

CCC[C@@H](NC(=O)c1cc2ccccc2n1C)c1ccc(C(=O)NO)cc1 [Compound I-106, N-((1R)-1-{4-[(hydroxyamino)carbonyl]phenyl}butyl)-1-methyl-1H-indole-2-carboxamide]
IC50 [1]: < 100 nM

CC(C)(C)C(NC(=O)c1cc2ccccc2o1)c1ccc(C(=O)NO)cc1 (stereo not drawn) [Compound I-4, N-(1-{4-[(hydroxyamino)carbonyl]phenyl}-2,2-dimethylpropyl)-1-benzofuran-2-carboxamide]
IC50 [1]: < 100 nM

Cc1cc(C(=O)NC(C)c2ccc(C(=O)NO)cc2)nn1C (stereo not drawn) [Compound I-241, N-(1-{4-[(hydroxyamino)carbonyl]phenyl}ethyl)-1,5-dimethyl-1H-pyrazole-3-carboxamide]
IC50 (bin: greater than 1 μM): > 1000 nM

CC(NC(=O)c1c(Cl)cccc1Cl)c1cccc(C(=O)NO)c1 (stereo not drawn) [Compound I-366, 2,6-dichloro-N-(1-{3-[(hydroxyamino)carbonyl]phenyl}ethyl)benzamide]
IC50 (bin: greater than 1 μM): > 1000 nM

Cc1cc(C(=O)NC(c2ccc(C(=O)NO)cc2)C(C)(C)C)c(C)o1 (stereo not drawn) [Compound I-9, N-(1-{4-[(hydroxyamino)carbonyl]phenyl}-2,2-dimethylpropyl)-2,5-dimethyl-3-furamide]
IC50 [2]: 500 to 1000 nM

Cc1nc2cc(C(=O)NC(C)c3ccc(C(=O)NO)cc3)ccc2s1 (stereo not drawn) [Compound I-230, N-(1-{4-[(hydroxyamino)carbonyl]phenyl}ethyl)-2-methyl-1,3-benzothiazole-5-carboxamide]
IC50 [1]: < 100 nM

CC(NC(=O)c1ccc(-n2cccn2)cc1)c1ccc(C(=O)NO)cc1 (stereo not drawn) [Compound I-185, N-(1-{4-[(hydroxyamino)carbonyl]phenyl}ethyl)-4-(1H-pyrazol-1-yl)benzamide]
IC50 [1]: < 100 nM

CC(NC(=O)c1ccc(-c2ccccc2)cc1)c1cccc(C(=O)NO)c1 (stereo not drawn) [Compound I-142, N-(1-{3-[(hydroxyamino)carbonyl]phenyl}ethyl)biphenyl-4-carboxamide]
IC50 [1]: 100 to 500 nM

CCC[C@@H](NC(=O)C12CC3CC(CC(C3)C1)C2)c1ccc(C(=O)NO)cc1 [Compound I-15, N-((1R)-1-{4-[(hydroxyamino)carbonyl]phenyl}butyl)adamantane-1-carboxamide]
IC50 [1]: < 100 nM

COc1ccc(NC(=O)NC(C)c2ccc(C(=O)NO)cc2)c(OC)c1 (stereo not drawn) [Compound I-44, 4-[1-({[(2,4-dimethoxyphenyl)amino]carbonyl}amino)ethyl]-N-hydroxybenzamide]
IC50 [1]: < 100 nM

C[C@@H](NC(=O)NC12CC3CC(CC(C3)C1)C2)c1ccc(C(=O)NO)cc1 [Compound I-374, 4-[(1R)-1-({[1-adamantylamino]carbonyl}amino)ethyl]-N-hydroxybenzamide]
IC50 [1]: < 100 nM

CC(NC(=O)C1CCCC1)c1ccc(C(=O)NO)cc1 (stereo not drawn) [Compound I-88, 4-{1-[(cyclopentylcarbonyl)amino]ethyl}-N-hydroxybenzamide]
IC50 [1]: < 100 nM

C[C@@H](NC(=O)Nc1c(F)cccc1F)c1ccc(C(=O)NO)cc1 [Compound I-518, 4-[(1R)-1-({[(2,6-difluorophenyl)amino]carbonyl}amino)ethyl]-N-hydroxybenzamide]
IC50 [1]: < 100 nM

CC(C)C(NC(=O)C1CCCCCC1)c1ccc(C(=O)NO)cc1 (stereo not drawn) [Compound I-382, N-(1-{4-[(hydroxyamino)carbonyl]phenyl}-2-methylpropyl)cycloheptanecarboxamide]
IC50 [1]: 100 to 500 nM

CC(C)C(NC(=O)c1ccc(C(C)(C)C)cc1)c1ccc(C(=O)NO)cc1 (stereo not drawn) [Compound I-192, 4-tert-butyl-N-(1-{4-[(hydroxyamino)carbonyl]phenyl}-2-methylpropyl)benzamide]
IC50 [1]: 100 to 500 nM

CC(C)[C@@H](NC(=O)c1cccn1C)c1ccc(C(=O)NO)cc1 [Compound I-65, N-((1R)-1-{4-[(hydroxyamino)carbonyl]phenyl}-2-methylpropyl)-1-methyl-1H-pyrrole-2-carboxamide]
IC50 [1]: < 100 nM

Cc1nn(C)cc1C(=O)NC(c1ccc(C(=O)NO)cc1)C(C)(C)C (stereo not drawn) [Compound I-86, N-(1-{4-[(hydroxyamino)carbonyl]phenyl}-2,2-dimethylpropyl)-1,3-dimethyl-1H-pyrazole-4-carboxamide]
IC50 [1]: 100 to 500 nM
